One may read the IC50 as the concentration that inhibits the measured activity by half. Read a high IC50 as lower potency.

For the assay, the system named is PBL. The experiment in a line: cells. To be noted: Homo sapiens, Blood.
Description: 50% inhibition of T-cell proliferation induced by anti-CD3/anti-CD28 co-stimulation in human peripheral blood leukocytes (PBLs).
With `COc1cc2c(cc1NCCN(C)C)nc(Nc1c(C)cccc1Cl)c1cnc(C)n12`, the IC50 was found to be 130 nM.

Take `COc1cc2c(cc1NCCN(C)C)nc(Nc1c(F)cccc1Cl)c1cncn12`: the IC50 amounted to 240 nM.

The compound `COc1cc2nc(Nc3c(C)cccc3Cl)c3cncn3c2cc1N1CC(C)NC(C)C1` (configuration not stated) gave an IC50 of 760 nM.

For the compound `Cc1cccc(Cl)c1Nc1nc2ccc(NCCN(C)C)cc2n2cncc12`, inhibition was half-maximal at 880 nM (IC50).

The compound `Cc1cccc(Cl)c1Nc1nc2ccc(N3CCNCC3)cc2n2cncc12` displayed an IC50 of 380 nM.

For the compound `COc1cc2c(cc1OCCN1CCOCC1)nc(Nc1c(C)cccc1Cl)c1cncn12`, the midpoint of inhibition, the IC50, lay at 470 nM.

`CCNc1ccc2nc(Nc3c(C)cccc3Cl)c3cncn3c2c1` showed an IC50 of 2200 nM.

The compound `CCN1CCN(c2ccc3nc(Nc4c(C)cccc4Cl)c4cncn4c3c2)CC1` had an IC50 of 270 nM.

In the case of `COc1cccc2nc(Nc3c(C)cccc3Cl)c3cncn3c12`, the IC50 came out at 2300 nM.

Regarding `Cc1cccc(Cl)c1Nc1nc2cc(N3CCNCC3)ccc2n2cncc12`, the IC50 stood at 1000 nM.

Consider `Cc1cccc(Cl)c1Nc1nc2ccc(NCCN3CCOCC3)cc2n2cncc12`, for which the IC50 was determined as 1300 nM.

`COc1cc2c(cc1NCCN(C)C)nc(Nc1c(C)cccc1Cl)c1cncn12`: the midpoint of inhibition, the IC50, lay at 190 nM.

With `COc1cc2c(cc1NCCN1CCOCC1)nc(Nc1c(C)cccc1Cl)c1cncn12`, half-maximal inhibition (IC50) required 280 nM.

`Cc1cccc(Cl)c1Nc1nc2cc(NCCN(C)C)ccc2n2cncc12` had an IC50 of 520 nM.

Consider `Cc1cccc(Cl)c1Nc1nc2cc3c(cc2n2cncc12)OCCO3`, for which the IC50 came out at 2200 nM.

`CCN(CC)c1ccc2nc(Nc3c(C)cccc3Cl)c3cncn3c2c1` gave an IC50 of 2600 nM.

`COc1cc2nc(Nc3c(C)cccc3Cl)c3cncn3c2cc1OC` gave an IC50 of 670 nM.

Compound `Cc1cccc(Cl)c1Nc1nc2cc(NCCCN(C)C)ccc2n2cncc12` gave a half-maximal inhibitory concentration (IC50) of 480 nM.

`Cc1cccc(Cl)c1Nc1nc2cc3c(cc2n2cncc12)OCO3`: the IC50 turned out to be 2000 nM.

Turning to `Cc1cccc(Cl)c1Nc1nc2ccc(N)cc2n2cncc12`, half-maximal inhibition (IC50) was put at 1600 nM.

For `Cc1cccc(Cl)c1Nc1nc2cc(N3CCOCC3)ccc2n2cncc12`, inhibition was half-maximal at 1000 nM (IC50).

The compound `Cc1cccc(Cl)c1Nc1nc2cc(O)c(O)cc2n2cncc12` gave an IC50 above 9000 nM.

`CCN(CC)c1ccc2c(c1)nc(Nc1c(C)cccc1Cl)c1cncn12` registered a half-maximal inhibitory concentration (IC50) of 1700 nM.

Compound `Cc1cccc(Cl)c1Nc1nc2cc(N3CCN(C)CC3)ccc2n2cncc12` yielded an IC50 of 720 nM.

Take `Brc1ccccc1Nc1nc2ccccc2n2cncc12`: the IC50 is 17000 nM.

As for `COc1ccc2c(c1)nc(Nc1c(C)cccc1Cl)c1cncn12`, the IC50 worked out at 2600 nM.

Compound `Cc1cccc(Cl)c1Nc1nc2ccc(N3CCN(C)CC3)cc2n2cncc12` returned an IC50 of 240 nM.

Turning to `COc1ccc2nc(Nc3c(C)cccc3Cl)c3cncn3c2c1`, the IC50 was 1400 nM.

`Cc1cccc(Cl)c1Nc1nc2ccc(N3CCN(C=O)CC3)cc2n2cncc12` displayed an IC50 of 530 nM.

On to `Cc1cccc(Cl)c1Nc1nc2ccc(N(C)C)cc2n2cncc12`, for which the IC50 was 2000 nM.

The compound `COc1cc2nc(Nc3c(C)cccc3C)c3cncn3c2cc1OC` displayed a concentration for half-maximal inhibition (IC50) of 1100 nM.

In the case of `Cc1cccc(Cl)c1Nc1nc2ccc(N3CC(C)NC(C)C3)cc2n2cncc12` (configuration not stated), the IC50 came out at 340 nM.

The compound `Cc1cccc(Cl)c1Nc1nc2ccc(N3CCOCC3)cc2n2cncc12` returned an IC50 of 780 nM.

Compound `Cc1cccc(Cl)c1Nc1nc2cc(N3CC(C)NC(C)C3)ccc2n2cncc12` (configuration not stated) yielded an IC50 of 570 nM.

As for `CC(=O)Nc1ccc2nc(Nc3c(C)cccc3Cl)c3cncn3c2c1`, the half-inhibitory concentration (IC50) is 1400 nM.

Compound `Cc1cccc(Cl)c1Nc1nc2ccc(N3CCCN(C)CC3)cc2n2cncc12` came in with an IC50 of 540 nM.

For the compound `Cc1cccc(Cl)c1Nc1nc2ccc(NCCCN3CCOCC3)cc2n2cncc12`, half-maximal inhibition (IC50) was put at 760 nM.

For the origin of these results see ChEMBL document CHEMBL1136039, “Synthesis and SAR of novel imidazoquinoxaline-based Lck inhibitors: improvement of cell potency” (Bioorg Med Chem Lett, 2002).
